Measured values: PubChem BioAssay AID248 (DTP/NCI, 2004)
Inconclusive results and toxic doses are left out.

System: L1210 leukemia ip in BDF1 mice, survival T/C
Assay: NCI In Vivo Anticancer Drug Screen. Data for tumor model L1210 Leukemia (intraperitoneal) in B6D2F1 (BDF1) mice
Settings: endpoint: mean survival time, higher = longer survival
Method in brief: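 In this screen, tumor-bearing mice given compound are compared to those given vehicle, and their survival values are reported as a treated-to-control quotient.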

[1] = dose: 100.0 mg/kg/injection, schedule: Q04DX002 (ip), vehicle: Klucel (hydroxypropylcellulose) (HPC)
[2] = dose: 200.0 mg/kg/injection, schedule: Q04DX002 (ip), vehicle: Klucel (hydroxypropylcellulose) (HPC)
[3] = dose: 100.0 mg/kg/injection, schedule: Q01DX001 (ip), vehicle: saline
[4] = dose: 200.0 mg/kg/injection, schedule: Q01DX001 (ip), vehicle: saline

## O=C(Nc1ccc(Br)cc1)C(Br)C(Br)c1ccccc1 (stereo unspecified)
[1]
  T/C: 98 % of control
[2]
  T/C: 88 % of control
dose: 400.0 mg/kg/injection, schedule: Q04DX002 (ip), vehicle: Klucel (hydroxypropylcellulose) (HPC)
  T/C: 98 % of control

## CC(=O)Oc1ccc(N2C(=O)C=CC2=O)cc1
dose: 3.12 mg/kg/injection, schedule: Q01DX009 (ip), vehicle: Klucel (hydroxypropylcellulose) (HPC)
  T/C: 97 % of control
dose: 6.25 mg/kg/injection, schedule: Q01DX009 (ip), vehicle: Klucel (hydroxypropylcellulose) (HPC)
  T/C: 96 % of control
dose: 12.5 mg/kg/injection, schedule: Q01DX009 (ip), vehicle: Klucel (hydroxypropylcellulose) (HPC)
  T/C: 100 % of control
dose: 25.0 mg/kg/injection, schedule: Q04DX003 (ip), vehicle: Klucel (hydroxypropylcellulose) (HPC)
  T/C: 118 % of control

## Nn1cnc2c(SCc3ccccc3)ncnc21
dose: 50.0 mg/kg/injection, schedule: Q01DX001 (ip), vehicle: carboxymethylcellulose (CMC)
  T/C: 101 % of control
dose: 62.0 mg/kg/injection, schedule: Q01DX015 (ip), vehicle: carboxymethylcellulose (CMC)
  T/C: 115 % of control
dose: 93.0 mg/kg/injection, schedule: Q01DX015 (ip), vehicle: carboxymethylcellulose (CMC)
  T/C: 121 % of control
dose: 100.0 mg/kg/injection, schedule: Q01DX001 (ip), vehicle: carboxymethylcellulose (CMC)
  T/C: 101 % of control
dose: 140.0 mg/kg/injection, schedule: Q01DX015 (ip), vehicle: carboxymethylcellulose (CMC)
  T/C: 158 % of control
dose: 200.0 mg/kg/injection, schedule: Q01DX001 (ip), vehicle: carboxymethylcellulose (CMC)
  T/C: 122 % of control

## CC(C)(C)c1cc([N+](=O)[O-])cc(C(C)(C)C)c1O
dose: 50.0 mg/kg/injection, schedule: Q01DX009 (ip), vehicle: saline with Tween-80
  T/C: 102 % of control
[3]
  T/C: 96 % of control
dose: 100.0 mg/kg/injection, schedule: Q01DX009 (ip), vehicle: saline with Tween-80
  T/C: 98 % of control
dose: 100.0 mg/kg/injection, schedule: Q04DX003 (ip), vehicle: saline
  T/C: 101 % of control
[4]
  T/C: 94 % of control
dose: 200.0 mg/kg/injection, schedule: Q04DX003 (ip), vehicle: saline
  T/C: 93 % of control
dose: 400.0 mg/kg/injection, schedule: Q01DX001 (ip), vehicle: saline
  T/C: 93 % of control

## Nc1ccccc1-n1cccc1
dose: 100.0 mg/kg/injection, schedule: Q04DX003 (ip), vehicle: other
  T/C: 100 % of control
dose: 200.0 mg/kg/injection, schedule: Q04DX003 (ip), vehicle: other
  T/C: 113 % of control
dose: 400.0 mg/kg/injection, schedule: Q04DX003 (ip), vehicle: other
  T/C: 100 % of control

## COc1ccc(N=C(N)N=C(N)N)cc1
dose: 50.0 mg/kg/injection, schedule: Q01DX001 (ip), vehicle: saline
  T/C: 111 % of control
[3]
  T/C: 104 % of control
dose: 100.0 mg/kg/injection, schedule: Q01DX009 (ip), vehicle: saline
  T/C: 91 % of control
[4]
  T/C: 95 % of control
dose: 200.0 mg/kg/injection, schedule: Q01DX009 (ip), vehicle: saline
  T/C: 92 % of control

## CS(=O)(=O)OC1CCC(OS(C)(=O)=O)CC1 (stereo unspecified)
dose: 100.0 mg/kg/injection, schedule: Q01DX001 (ip), vehicle: saline with Tween-80
  T/C: 103 % of control
dose: 200.0 mg/kg/injection, schedule: Q01DX001 (ip), vehicle: saline with Tween-80
  T/C: 100 % of control
dose: 400.0 mg/kg/injection, schedule: Q01DX001 (ip), vehicle: saline with Tween-80
  T/C: 100 % of control

## Cc1cc2c(cc1C)N(C(=O)CCl)CC(=O)N2
dose: 9.37 mg/kg/injection, schedule: Q01DX009 (ip), vehicle: acetone
  T/C: 95 % of control
dose: 18.75 mg/kg/injection, schedule: Q01DX009 (ip), vehicle: acetone
  T/C: 93 % of control
dose: 18.75 mg/kg/injection, schedule: Q04DX003 (ip), vehicle: saline
  T/C: 96 % of control
dose: 37.5 mg/kg/injection, schedule: Q01DX009 (ip), vehicle: acetone
  T/C: 93 % of control
dose: 37.5 mg/kg/injection, schedule: Q04DX003 (ip), vehicle: saline
  T/C: 98 % of control
dose: 75.0 mg/kg/injection, schedule: Q01DX001 (ip), vehicle: saline
  T/C: 113 % of control
dose: 75.0 mg/kg/injection, schedule: Q04DX003 (ip), vehicle: saline
  T/C: 93 % of control

## CN(C)Cc1ccccc1COC(=O)/C=C/c1ccccc1
dose: 50.0 mg/kg/injection, schedule: Q04DX002 (ip), vehicle: Klucel (hydroxypropylcellulose) (HPC)
  T/C: 101 % of control
[1]
  T/C: 94 % of control
[2]
  T/C: 97 % of control
